Data reported in US20240335505A1, “PRODUCTS AND METHODS FOR PROMOTING MYOGENESIS” (Ecole Polytechnique Federale de Lausanne (EPFL), priority 2021, published 2024).

Key:
Tead1 = molecular target: T1, Tead1 (Mus musculus, UniProt P30051); assay: C2C12 myoblast differentiation after disruption of Tead1 function (siRNA or Verteporfin); assay type: cell-based
T1 construct: endogenous in cells; host or cells: C2C12 mouse myoblasts (ATCC CRL-1772)
Experimental: Cell culture. The C2C12 mouse myoblast cell line was obtained from the American Type Culture Collection (CRL-1772TM). C2C12 and HEK293T cells (CRL-3216™, ATCCR) were cultured in growth medium consisting of Dulbecco's modified Eagle's medium (Gibco, 41966-029), 20% Fetal Bovine Serum (Gibco, 10270-106) and 100 U/mL penicillin and […] streptomycin (Gibco, 15140-122). Differentiation of Cytor/CYTOR overexpressing cells or Tead1 silenced cells were assessed in culture medium. Human skeletal muscle myoblasts (Lonza, Switzerland) were cultured in DMEM/F12 Glutamax (31331093, Gibco) supplemented with 20% FBS (Gibco, 10270-106) and 1% penicillin/streptomycin (15140-122, Gibco). Human skeletal muscle myoblasts from young, old and DMD donors were obtained from the Groupement Hospitalier Est (CBC BioTec, Centre de Ressources Biologique) and cultured in Ham F10 medium (11550043, Thermo Fisher) with 12% FBS (10270-106, Gibco) and 1% penicillin/streptomycin (Gibco, 15140-122). Muscle cell differentiation was achieved by substituting FBS with 2% horse serum (Gibco, 16050-122). For detachment Trypsin-EDTA 0.05% (25300-062, Gibco) was used for all cell lines. All cells were maintained at 37° C. and 5% CO2. Cell lines were continuously tested for mycoplasma contamination.
Cell transfection and transduction. Cell transfections were done using TransiT (Mirus) according to the manufacturer's protocol with a 3:1 ratio of transfection agent to DNA. 24 well plates were transfected with 150 ng DNA, 12 well plates with 300 ng DNA, and 6 well plates with 1 ug DNA. To transfect 25 nM GapmeR or siRNA in C2C12, LipofectamineR RNAiMAX (Thermo Scientific, 13778100) was used following manufacturer's instructions. […]
Immunocytochemistry. […] The myofusion index was calculated as the ratio of nuclei within myotubes to total nuclei. Myotube diameter was measured for 10 randomly chosen myotubes per image. Myotube area was calculated as the total area covered by myotubes. […]

C. elegans = assay: Muscle function and morphology in aged C. elegans; assay type: in vivo; details: day 15 of adulthood; verteporfin 10 uM from L4 stage; egl-44 RNAi by maternal treatment (FIG. 19A-F)
Experimental: Transgenic Caenorhabditis Elegans. C. elegans strains were cultured at 20° C. on nematode growth medium (NGM) agar plates seeded with E. coli strain OP50 unless stated otherwise. Strains used in this study were the wild-type Bristol N2 and COP2054. N2 strain was provided by the Caenorhabditis Genetics Center (University of Minnesota). For RNAi experiments, worms were exposed to egl-44 RNAi or an empty vector control plasmid using maternal treatment to ensure robust knock down of the investigated gene. Verteporfin was dissolved in DMSO, and used at a final concentration of 10 uM. Worms were exposed to verteporfin starting from L4 stage. Verteporfin or DMSO was added to agar before preparing plates. To ensure a permanent exposure to the compound, plates were changed twice a week. The COP2054 worm strain expressing human CYTOR was generated by a custom transgenic service (Knudra Transgenics, Salt Lake City, UT). Briefly, Mosi-mediated Single Copy Insertion (MosSCI) started with the construction of myo3p::CYTOR::tbb2u, where the myo3p promoter and tbb-2 3′-UTR were taken from the N2 genome, and CYTOR was synthesized with codon and intron optimization for C. elegans. […]
C. […] 45 to 60 worms per condition were manually scored for paralysis after poking. Worms that were unable to respond to any repeated stimulation were scored as dead. […]

T1 sequence (P30051 whole entry): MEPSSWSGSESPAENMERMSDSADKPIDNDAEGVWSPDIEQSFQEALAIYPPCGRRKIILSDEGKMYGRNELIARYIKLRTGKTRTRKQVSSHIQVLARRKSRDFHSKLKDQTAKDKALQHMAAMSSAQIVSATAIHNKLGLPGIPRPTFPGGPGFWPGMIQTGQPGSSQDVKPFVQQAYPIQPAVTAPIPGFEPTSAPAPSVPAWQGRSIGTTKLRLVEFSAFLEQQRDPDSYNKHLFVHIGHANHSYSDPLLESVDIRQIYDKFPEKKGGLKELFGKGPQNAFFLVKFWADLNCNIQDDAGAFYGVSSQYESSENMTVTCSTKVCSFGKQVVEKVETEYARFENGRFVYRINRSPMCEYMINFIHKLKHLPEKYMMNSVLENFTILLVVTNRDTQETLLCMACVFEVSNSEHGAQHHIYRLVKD

myotube area (Tead1; C2C12 myoblasts (FIG. 18B)): increase myotube area | myofusion (Tead1; C2C12 myoblasts (FIG. 18C)): increase | expression of type II myosin isoforms (Tead1; C2C12 myoblasts (FIG. 18D)): induce the expression of type II
Substance: Verteporfin
function and morphology of aged C. elegans (movement, speed, activity, paralysis, death) (C. elegans): phenocopied the beneficial effect of Cytor
